Measured values as given in the supplement of paper PMC10307832.

What was measured:
Experiment in all cases: relative viability (nuclei count vs DMSO), 5 days (fraction); higher = more cells survive
201T = test system: 201T
Summary of the method: (§1)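 Lung cancer cell lines in 1536-well plates got either a single drug or a fixed anchor-drug dose together with five library-drug doses (not always all listed) in √10 steps, by pin tool, on the day after seeding. Nuclei were counted after 5 days, and relative viability is the treated-to-vehicle ratio of nuclei counts. Values are medians of duplicate plates.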

BEN = test system: BEN
Summary of the method: as §1

EMC-BAC-2 = test system: EMC-BAC-2
Summary of the method: as §1

HARA = test system: HARA
Summary of the method: as §1

HCC-44 = test system: HCC-44
Summary of the method: as §1

LCLC-103H = test system: LCLC-103H
Summary of the method: as §1

LOU-NH91 = test system: LOU-NH91
Summary of the method: as §1

NCI-H1993 = test system: NCI-H1993
Summary of the method: as §1

NCI-H2023 = test system: NCI-H2023
Summary of the method: as §1

NCI-H2087 = test system: NCI-H2087
Summary of the method: as §1

NCI-H2126 = test system: NCI-H2126
Summary of the method: as §1

NCI-H2347 = test system: NCI-H2347
Summary of the method: as §1

NCI-H23 = test system: NCI-H23
Summary of the method: as §1

NCI-H3122 = test system: NCI-H3122
Summary of the method: as §1

NCI-H441 = test system: NCI-H441
Summary of the method: as §1

NCI-H596 = test system: NCI-H596
Summary of the method: as §1

NCI-H647 = test system: NCI-H647
Summary of the method: as §1

NCI-H650 = test system: NCI-H650
Summary of the method: as §1

NCI-H727 = test system: NCI-H727
Summary of the method: as §1

NCI-H838 = test system: NCI-H838
Summary of the method: as §1

CC(=O)O[C@@]12CO[C@@H]1C[C@H](O)[C@@]1(C)C(=O)[C@H](O)C3=C(C)[C@@H](OC(=O)[C@H](O)[C@@H](NC(=O)OC(C)(C)C)c4ccccc4)C[C@@](O)([C@@H](OC(=O)c4ccccc4)[C@H]21)C3(C)C [Docetaxel] + C[C@@H](Oc1cc(-c2cnn(C3CCNCC3)c2)cnc1N)c1c(Cl)ccc(F)c1Cl [Crizotinib] (partner 1 µM)
relative viability (201T; first compound 0.0002 µM): 0.983
relative viability (201T; first compound 0.000632 µM): 1.03
relative viability (201T; first compound 0.002 µM): 0.908
relative viability (201T; first compound 0.006325 µM): 0.646
relative viability (201T; first compound 0.02 µM): 0.5
relative viability (BEN; first compound 0.0002 µM): 0.859
relative viability (BEN; first compound 0.000632 µM): 0.809
relative viability (BEN; first compound 0.002 µM): 0.42
relative viability (BEN; first compound 0.006325 µM): 0.222
relative viability (EMC-BAC-2; first compound 0.0002 µM): 0.651
relative viability (EMC-BAC-2; first compound 0.000632 µM): 0.401
relative viability (EMC-BAC-2; first compound 0.002 µM): 0.404
relative viability (EMC-BAC-2; first compound 0.02 µM): 0.161
relative viability (HARA; first compound 0.0002 µM): 0.903
relative viability (HARA; first compound 0.000632 µM): 0.364
relative viability (HARA; first compound 0.002 µM): 0.312
relative viability (HARA; first compound 0.006325 µM): 0.0907
relative viability (HARA; first compound 0.02 µM): 0.104
relative viability (HCC-44; first compound 0.0002 µM): 0.805
relative viability (HCC-44; first compound 0.000632 µM): 0.536
relative viability (HCC-44; first compound 0.002 µM): 0.483
relative viability (HCC-44; first compound 0.006325 µM): 0.195
relative viability (HCC-44; first compound 0.02 µM): 0.12
relative viability (LCLC-103H; first compound 0.0002 µM): 1.19
relative viability (LCLC-103H; first compound 0.000632 µM): 1.04
relative viability (LCLC-103H; first compound 0.002 µM): 0.776
relative viability (LCLC-103H; first compound 0.006325 µM): 0.674
relative viability (LCLC-103H; first compound 0.02 µM): 0.756
relative viability (LOU-NH91; first compound 0.0002 µM): 0.734
relative viability (LOU-NH91; first compound 0.000632 µM): 0.664
relative viability (LOU-NH91; first compound 0.002 µM): 0.508
relative viability (LOU-NH91; first compound 0.006325 µM): 0.373
relative viability (LOU-NH91; first compound 0.02 µM): 0.362
relative viability (NCI-H1993; first compound 0.0002 µM): 0.93
relative viability (NCI-H1993; first compound 0.000632 µM): 0.787
relative viability (NCI-H1993; first compound 0.002 µM): 0.791
relative viability (NCI-H1993; first compound 0.006325 µM): 0.537
relative viability (NCI-H1993; first compound 0.02 µM): 0.508
relative viability (NCI-H2023; first compound 0.0002 µM): 0.587
relative viability (NCI-H2023; first compound 0.000632 µM): 0.451
relative viability (NCI-H2023; first compound 0.002 µM): 0.123
relative viability (NCI-H2023; first compound 0.006325 µM): 0.096
relative viability (NCI-H2023; first compound 0.02 µM): 0.0789
relative viability (NCI-H2087; first compound 0.0002 µM): 0.854
relative viability (NCI-H2087; first compound 0.000632 µM): 0.684
relative viability (NCI-H2087; first compound 0.002 µM): 0.334
relative viability (NCI-H2087; first compound 0.006325 µM): 0.182
relative viability (NCI-H2087; first compound 0.02 µM): 0.156
relative viability (NCI-H2126; first compound 0.0002 µM): 1.01
relative viability (NCI-H2126; first compound 0.000632 µM): 1.03
relative viability (NCI-H2126; first compound 0.002 µM): 0.632
relative viability (NCI-H2126; first compound 0.006325 µM): 0.382
relative viability (NCI-H2126; first compound 0.02 µM): 0.322
relative viability (NCI-H2347; first compound 0.0002 µM): 0.736
relative viability (NCI-H2347; first compound 0.000632 µM): 0.702
relative viability (NCI-H2347; first compound 0.002 µM): 0.695
relative viability (NCI-H2347; first compound 0.006325 µM): 0.589
relative viability (NCI-H2347; first compound 0.02 µM): 0.422
relative viability (NCI-H23; first compound 0.0002 µM): 0.534
relative viability (NCI-H23; first compound 0.000632 µM): 0.412
relative viability (NCI-H23; first compound 0.002 µM): 0.271
relative viability (NCI-H23; first compound 0.006325 µM): 0.189
relative viability (NCI-H23; first compound 0.02 µM): 0.113
relative viability (NCI-H3122; first compound 0.0002 µM): 0.241
relative viability (NCI-H3122; first compound 0.000632 µM): 0.257
relative viability (NCI-H3122; first compound 0.002 µM): 0.26
relative viability (NCI-H3122; first compound 0.006325 µM): 0.207
relative viability (NCI-H3122; first compound 0.02 µM): 0.178
relative viability (NCI-H441; first compound 0.0002 µM): 0.802
relative viability (NCI-H441; first compound 0.000632 µM): 0.472
relative viability (NCI-H441; first compound 0.002 µM): 0.29
relative viability (NCI-H441; first compound 0.006325 µM): 0.193
relative viability (NCI-H441; first compound 0.02 µM): 0.181
relative viability (NCI-H596; first compound 0.0002 µM): 0.986
relative viability (NCI-H596; first compound 0.000632 µM): 0.798
relative viability (NCI-H596; first compound 0.002 µM): 1.01
relative viability (NCI-H596; first compound 0.006325 µM): 0.475
relative viability (NCI-H596; first compound 0.02 µM): 0.462
relative viability (NCI-H647; first compound 0.0002 µM): 0.769
relative viability (NCI-H647; first compound 0.000632 µM): 0.319
relative viability (NCI-H647; first compound 0.002 µM): 0.172
relative viability (NCI-H647; first compound 0.006325 µM): 0.117
relative viability (NCI-H647; first compound 0.02 µM): 0.1
relative viability (NCI-H650; first compound 0.0002 µM): 0.504
relative viability (NCI-H650; first compound 0.000632 µM): 0.356
relative viability (NCI-H650; first compound 0.002 µM): 0.253
relative viability (NCI-H650; first compound 0.006325 µM): 0.208
relative viability (NCI-H650; first compound 0.02 µM): 0.204
relative viability (NCI-H727; first compound 0.0002 µM): 0.862
relative viability (NCI-H727; first compound 0.000632 µM): 0.815
relative viability (NCI-H727; first compound 0.002 µM): 0.344
relative viability (NCI-H727; first compound 0.006325 µM): 0.298
relative viability (NCI-H727; first compound 0.02 µM): 0.24
relative viability (NCI-H838; first compound 0.0002 µM): 0.856
relative viability (NCI-H838; first compound 0.000632 µM): 0.7
relative viability (NCI-H838; first compound 0.002 µM): 0.155
relative viability (NCI-H838; first compound 0.006325 µM): 0.201
relative viability (NCI-H838; first compound 0.02 µM): 0.124
